Assay results reported in US20060167084A1, “Delta-9-THC compositions and methods for treating symptoms associated with multiple sclerosis” (Unimed Pharmaceuticals, Inc., priority 2003, published 2006).

Assays:
[1] = tested on: spasticity related to multiple sclerosis; assay: Ashworth score of spasticity, randomized placebo-controlled MS study; format: in vivo, human; conditions: baseline to 13 weeks' follow-up
[2] = tested on: patients with multiple sclerosis; assay: Timed 10 meter walk; format: in vivo, human; conditions: baseline to follow-up (visit 7)
[3] = tested on: patients with multiple sclerosis; assay: Category-rating scales of symptoms (patient reported secondary outcomes); format: in vivo, human
[4] = tested on: patients with multiple sclerosis; assay: Patient assessment of treatment benefit at visit 8; format: in vivo, human
[5] = tested on: patients with multiple sclerosis; assay: Adverse events reported by patients

SMILES: CCCCCc1cc(O)c2c(c1)OC(C)(C)[C@@H]1CCC(C)=C[C@@H]21 [delta-9-THC, (6aR-trans)-6a,7,8,10a-tetrahydro-6,6,9-trimethyl-3-pentyl-6H-dibenzo>b,d!pyran-1-ol]
- Mean (SD) change in Ashworth score, lower-body muscle groups [1]: 1.39 (5.21)
- Mean (SD) change in Ashworth score, upper-body muscle groups [1]: 0.48 (4.70)
- Mean (SD) change in total Ashworth score (baseline minus follow-up) ([1]; all muscle groups): 1.86 (7.95)
- Reduction of median time taken to walk 10 meters [2]: 12%
- Depression: Deterioration, patients ([3]; number of patients): 42
- Depression: Improvement, patients ([3]; number of patients): 36
- Depression: Same, patients ([3]; number of patients): 47
- Energy: Deterioration, patients ([3]; number of patients): 49
- Energy: Improvement, patients ([3]; number of patients): 61
- Energy: Same, patients ([3]; number of patients): 63
- Irritability: Deterioration, patients ([3]; number of patients): 32
- Irritability: Improvement, patients ([3]; number of patients): 37
- Irritability: Same, patients ([3]; number of patients): 42
- Pain: Deterioration, patients ([3]; number of patients): 22
- Pain: Improvement, patients ([3]; number of patients): 64
- Pain: Same, patients ([3]; number of patients): 43
- Shake/tremor: Deterioration, patients ([3]; number of patients): 32
- Shake/tremor: Improvement, patients ([3]; number of patients): 52
- Shake/tremor: Same, patients ([3]; number of patients): 44
- Sleep: Deterioration, patients ([3]; number of patients): 24
- Sleep: Improvement, patients ([3]; number of patients): 71
- Sleep: Same, patients ([3]; number of patients): 57
- Spasms: Deterioration, patients ([3]; number of patients): 37
- Spasms: Improvement, patients ([3]; number of patients): 81
- Spasms: Same, patients ([3]; number of patients): 49
- Spasticity: Deterioration, patients ([3]; number of patients): 47
- Spasticity: Improvement, patients ([3]; number of patients): 89
- Spasticity: Same, patients ([3]; number of patients): 40
- Tiredness: Deterioration, patients ([3]; number of patients): 76
- Tiredness: Improvement, patients ([3]; number of patients): 35
- Tiredness: Same, patients ([3]; number of patients): 46
- Depression: Deterioration ([3]; percent of patients): (34%)
- Depression: Improvement ([3]; percent of patients): (29%)
- Depression: Same ([3]; percent of patients): (38%)
- Energy: Deterioration ([3]; percent of patients): (28%)
- Energy: Improvement ([3]; percent of patients): (35%)
- Energy: Same ([3]; percent of patients): (36%)
- Irritability: Deterioration ([3]; percent of patients): (29%)
- Irritability: Improvement ([3]; percent of patients): (33%)
- Irritability: Same ([3]; percent of patients): (38%)
- Pain: Deterioration ([3]; percent of patients): (17%)
- Pain: Improvement ([3]; percent of patients): (50%)
- Pain: Same ([3]; percent of patients): (33%)
- Shake/tremor: Deterioration ([3]; percent of patients): (25%)
- Shake/tremor: Improvement ([3]; percent of patients): (41%)
- Shake/tremor: Same ([3]; percent of patients): (34%)
- Sleep: Deterioration ([3]; percent of patients): (16%)
- Sleep: Improvement ([3]; percent of patients): (47%)
- Sleep: Same ([3]; percent of patients): (38%)
- Spasms: Deterioration ([3]; percent of patients): (22%)
- Spasms: Improvement ([3]; percent of patients): (49%)
- Spasms: Same ([3]; percent of patients): (29%)
- Spasticity: Deterioration ([3]; percent of patients): (27%)
- Spasticity: Improvement ([3]; percent of patients): (51%)
- Spasticity: Same ([3]; percent of patients): (23%)
- Tiredness: Deterioration ([3]; percent of patients): (48%)
- Tiredness: Improvement ([3]; percent of patients): (22%)
- Tiredness: Same ([3]; percent of patients): (29%)
- Symptom improvement Bladder: No, patients ([4]; visit 8, number of patients): 97
- Symptom improvement Bladder: Yes, patients ([4]; visit 8, number of patients): 67
- Symptom improvement Pain: No, patients ([4]; visit 8, number of patients): 64
- Symptom improvement Pain: Yes, patients ([4]; visit 8, number of patients): 64
- Symptom improvement Spasticity: No, patients ([4]; visit 8, number of patients): 73
- Symptom improvement Spasticity: Yes, patients ([4]; visit 8, number of patients): 108
- Symptom improvement Tremor: No, patients ([4]; visit 8, number of patients): 67
- Symptom improvement Tremor: Yes, patients ([4]; visit 8, number of patients): 44
- Symptom improvement Bladder: No ([4]; visit 8, percent of patients): (59%)
- Symptom improvement Bladder: Yes ([4]; visit 8, percent of patients): (40%)
- Symptom improvement Pain: No ([4]; visit 8, percent of patients): (50%)
- Symptom improvement Pain: Yes ([4]; visit 8, percent of patients): (50%)
- Symptom improvement Spasticity: No ([4]; visit 8, percent of patients): (40%)
- Symptom improvement Spasticity: Yes ([4]; visit 8, percent of patients): (60%)
- Symptom improvement Tremor: No ([4]; visit 8, percent of patients): (60%)
- Symptom improvement Tremor: Yes ([4]; visit 8, percent of patients): (40%)
- Incidences of MS relapse by comparison with placebo ([5]; in words): greatly reduced
- Adverse event: Blocked/insertion of suprapubic catheter ([5]; number of events reported): 0
- Adverse event: Constipation ([5]; number of events reported): 0
- Adverse event: Grand mal seizure ([5]; number of events reported): 0
- Adverse event: MS relapse or possible relapse ([5]; number of events reported): 1
- Adverse event: Other ([5]; number of events reported): 11
- Adverse event: Pneumonia ([5]; number of events reported): 2
- Adverse event: Urinary tract infection ([5]; number of events reported): 3
